Measurements: US20250002491A1, “N,N-DIMETHYL-4-(7-(N-(1-METHYLCYCLOPROPYL)SULFAMOYL)-IMIDAZO[1,5-A]PYRIDIN-5-YL)PIPERAZINE-1-CARBOXAMIDE DERIVATIVES AND THE CORRESPONDING PYRAZOLO[1,5-A]PYRIDINE DERIVATIVES AS PARG INHIBITORS FOR THE TREATMENT OF CANCER” (FORX THERAPEUTICS AG, priority 2021, published 2025)
Where two headings read alike, the source gives them in different places.

Key:
U2OS cells = assay: Cellular viability assay (Cell Titer-Glo), U2OS; type: cell-based; details: Homo sapiens; U2OS (PARG-inhibition insensitive), 96 hours of incubation; read-out: EC50 in μM determined in U2OS cells as described under Cellular viability assay
Description: (§1) NCIH-460 as a PARG-inhibition sensitive cell line and U2OS as PARG-inhibition insensitive cell line were plated at 1000 cells/well and 2000 cells/well, respectively, in 96-well white plates with clear flat bottom. After 24 hours, the compounds were added with the Tecan digital dispenser (D300e), in duplicates. The outer wells of the plate were excluded. After 96 hours of incubation, 150 μl of the growth medium were removed and 50 μl of Cell Titer-Glo (Promega) were added per well. Following an incubation of 10 minutes, luminescence was read using a plate reader (Tecan). Averaged values of the samples were normalized to DMSO treated control samples. Curves were fit as % of the control vs. log of the compound concentration using a 4 parameter log-logistic function: […]

PARG in U2OS cells = assay: Cellular PAR chain assay (flow cytometry, PAR chain positive cells); type: cell-based; details: 1 hour compound pretreatment
Description: The ability of compounds to inhibit PARG in response to DNA damage, was assessed with U2OS cells pretreated with the compounds for 1 hour, following a 1-hour treatment with or without the DNA alkylating agent temozolomide (TMZ). […] The cells were incubated for 2 hours at room temperature with a mouse monoclonal antibody against poly (ADP) ribose (PAR) polymer. The cells were washed and incubated with an anti-mouse Alexa-488 conjugated secondary antibody for 1 hour at room temperature. Propidium iodide staining was used to determine DNA content in the cells (staining at 4° C. overnight). The fluorescence intensity of the cells was assessed by flow cytometry (Cytoflex from Beckmann) and the percentage of PAR chain positive cells (gated in relation to TMZ+DMSO treated control) was determined. PAR chain positive cells % were fit against the concentration of the compound using a 4 parameter log-logistic function, generating PAR chain EC50 values: […]

hPARG = target: T1, hPARG (Homo sapiens, UniProt Q86W56, A967T/C963S/D927K/H446G/I916T/L447S/L473S/M841I/N479S/R811K/S802A/S858P/T924D); assay: PARG enzymatic IC50 assay (absorbance, ADP-ribose-pNP substrate); type: biochemical; details: 2 hours incubation of enzyme with compound; 30 nM hPARG, 800 μM ADP-pNP; read-out: IC50 in μM determined in PARG enzymatic assay (PARG protein and 2 hours incubation)
T1 construct: human PARG (448-976 [H446G, L447S, L473S, N479S); 6His-TwinStrep (protease-cleavable) (N, cleaved yes); host or cells: E. coli BL21 (DE3)
Description: A codon optimized gene encoding human PARG (448-976 [H446G, L447S, L473S, N479S, S802A, R811K, M841I, S858P, 1916T, T924D, D927K, C963S, A967T]) was synthesized by Genscript, and cloned into pET15b (Ncol/BamHI) with an N-terminal, Thrombin protease cleavable 6His-TwinStrep tag. Expression of the protein in E. coli BL21 (DE3) was induced by addition of 0.2 mM IPTG to a shake flask culture grown to OD600=0.8 at 37° C. Growth was allowed to continue at 30° C. for a further 20 hours before harvesting by centrifugation and storage of the cell pellet at −80° C.
Protein was purified by IMAC and SEC: frozen cell pellets (typically 40 g wet weight) were resuspended by homogenization in 5 volumes buffer A (25 mM Tris/HCl pH 8.0, 200 mM NaCl, 2 mM DTT), supplemented with 1 mg of DNase I from bovine pancreas (Sigma-Aldrich) and protease inhibitors (Roche Complete™ EDTA-free protease inhibitor tablet), and lysed by passage through a Constant Systems BasicZ homogenizer. The lysate was clarified by centrifugation for 60 minutes at 25,000 g, 4° C., and the lysate supernatant was loaded onto 5 ml StrepTrap HP (Cytiva) pre-equilibrated with buffer A. The column was washed with buffer A (˜10 CV), then buffer B containing 1M KCl (˜5 CV), and then the protein was eluted with buffer A containing 2.5 mM d-Desthiobiotin. Pooled fractions containing 6HisTwinStrep-TEV-hPARG were incubated with TEV protease overnight at 4° C. hPARG was separated from uncleaved material and Thrombin protease through gel filtration with Superdex75 sizing column (GE Healthcare) pre-equilibrated with SEC buffer (15 mM Tris/HCl pH 8.5, 100 mM NaCl, 2 mM DTT). Pooled fractions containing pure hPARG were concentrated using a 10 k MWCO spin concentrator (VivaSpin) to 10 mg/mL, and then either used immediately for crystallisation or snap-frozen in liquid nitrogen for storage at −80° C.
PARG Enzymatic IC50 Assay
PARG enzyme as incubated with compound or vehicle (DMSO) for 15 minutes or 2 hours in a 384 well plate. After adding the PARG substrate ADP-ribose-pNP, the plate was read for absorbance intensity at 405 nm. The vehicle (DMSO) with high absorbance intensity represents no inhibition of enzymatic reaction while the low control (no enzyme) with low absorbance intensity represents full inhibition of enzymatic reaction.
• hPARG: Peak Protein, 30 nM • Substrate: ADP-pNP, 800 μM, Jena Bioscience catalog #NU-955 • Reaction time: 60 minutes • Assay buffer: 50 mM Tris-HCl pH 8.0, 100 mM NaCl, 2 mM DTT • Temperature: 30° C. • Total volume: 30 μL
• 0% inhibition control: DMSO • 100% inhibition control: No enzyme
The protocol that was used for enzyme reaction and detection is as follows: • 1. Transfer 100 nL of the final concentration of test compounds or vehicle (DMSO) to the appropriate wells of a microtiter plate. • 2. Centrifuge the plate at 1000 rpm for 1 minute. • 3. Transfer 14.6 μL of 2× final concentration of enzyme in assay buffer or assay buffer alone to the appropriate wells. • 4. Centrifuge the plate at 1000 rpm for 1 minute. • 5. Incubate the plate at room temperature for 15 minutes or 2 hours. • 6. Transfer 15.4 μL of 2× substrate in assay buffer to all the test wells. • 7. Centrifuge the plate at 1000 rpm for 1 minute. • 8. Read the plate on a plate reader (e.g., Spark Tecan).

NCIH-460 cells = assay: Cellular viability assay (Cell Titer-Glo), NCIH-460; type: cell-based; details: Homo sapiens, NCI-H460; NCIH-460 (PARG-inhibition sensitive), 96 hours of incubation; read-out: EC50 in μM determined in NCIH-460 cells as described under Cellular viability assay
Description: as §1

[1] = without TMZ, read-out: EC50 in μM determined in cellular assay as described under Cellular PAR chain assay (conditions without treatment of TMZ)
[2] = Homo sapiens, then 1-hour treatment with TMZ, read-out: EC50 in μM determined in cellular assay as described under Cellular PAR chain assay (conditions with treatment of TMZ)

T1 sequence (Q86W56 446-976 H446G/L447S/L473S/N479S/S802A/R811K/M841I/S858P/I916T/T924D/D927K/C963S/A967T): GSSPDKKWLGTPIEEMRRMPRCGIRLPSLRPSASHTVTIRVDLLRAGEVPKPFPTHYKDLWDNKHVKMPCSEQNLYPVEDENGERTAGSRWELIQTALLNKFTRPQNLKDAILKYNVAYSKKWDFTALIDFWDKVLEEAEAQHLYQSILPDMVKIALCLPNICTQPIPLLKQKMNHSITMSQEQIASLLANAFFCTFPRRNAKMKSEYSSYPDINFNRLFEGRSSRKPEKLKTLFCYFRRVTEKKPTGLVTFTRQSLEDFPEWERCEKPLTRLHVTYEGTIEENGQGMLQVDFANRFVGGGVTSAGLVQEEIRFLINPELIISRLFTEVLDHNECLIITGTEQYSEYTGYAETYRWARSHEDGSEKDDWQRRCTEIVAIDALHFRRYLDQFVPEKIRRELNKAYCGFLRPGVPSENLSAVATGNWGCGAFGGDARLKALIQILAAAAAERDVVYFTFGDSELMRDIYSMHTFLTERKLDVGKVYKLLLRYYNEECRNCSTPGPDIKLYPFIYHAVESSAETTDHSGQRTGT

EC50 (U2OS cells)	EC50 (PARG in U2OS cells; [1])	EC50 (PARG in U2OS cells; [2])	IC50 (hPARG)	SMILES	EC50 (NCIH-460 cells)
> 16.8 µM	> 10 µM	1.1 µM	0.064 µM	Cc1ccc(-c2ncn3c(N4CCN(C(=O)N(C)C)CC4)cc(S(=O)(=O)NC4(C)CC4)cc23)cn1 [Example 1, N,N-dimethyl-4-(7-(N-(1-methylcyclopropyl)sulfamoyl)-1-(6-methylpyridin-3-yl)imidazo[1,5-a]pyridin-5-yl)piperazine-1-carboxamide]	13.4 µM
> 20 µM	> 10 µM	0.218 µM	0.066 µM	CN(C)C(=O)N1CCN(c2cc(S(=O)(=O)NC3(C)CC3)cc3c(-c4ccc(C(F)F)nc4)ncn23)CC1 [Example 3, 4-(1-(6-(difluoromethyl)pyridin-3-yl)-7-(N-(1-methylcyclopropyl)sulfamoyl)imidazo[1,5-a]pyridin-5-yl)-N,N-dimethylpiperazine-1-carboxamide]	4.47 µM
> 20 µM	> 10 µM	0.223 µM	0.054 µM	Cc1ccc(-c2cnn3c(N4CCN(C(=O)N(C)C)CC4)cc(S(=O)(=O)NC4(C)CC4)cc23)cn1 [Example 5, N,N-dimethyl-4-(5-(N-(1-methylcyclopropyl)sulfamoyl)-3-(6-methylpyridin-3-yl)pyrazolo[1,5-a]pyridin-7-yl)piperazine-1-carboxamide]	3.22 µM
> 20 µM	> 10 µM	0.328 µM	0.028 µM	CN(C)C(=O)N1CCN(c2cc(S(=O)(=O)NC3(C)CC3)cc3c(-c4ccc(C(F)F)nc4)cnn23)CC1 [Example 7, 4-(3-(6-(difluoromethyl)pyridin-3-yl)-5-(N-(1-methylcyclopropyl)sulfamoyl)pyrazolo[1,5-a]pyridin-7-yl)-N,N-dimethylpiperazine-1-carboxamide]	3.94 µM
> 20 µM	–	–	0.043 µM	COC(=O)c1cnn2c(N3CCN(C(=O)N(C)C)CC3)cc(S(=O)(=O)NC3(C)CC3)cc12 [Example 8, Methyl 7-(4-(dimethylcarbamoyl)piperazin-1-yl)-5-(N-(1-methylcyclopropyl)sulfamoyl)pyrazolo[1,5-a]pyridine-3-carboxylate]	7.22 µM
> 20 µM	> 10 µM	0.266 µM	0.042 µM	CN(C)C(=O)N1CCN(c2cc(S(=O)(=O)NC3(C)CC3)cc3c(-c4nnc(C(F)F)s4)cnn23)CC1 [Example 10, 4-(3-(5-(difluoromethyl)-1,3,4-thiadiazol-2-yl)-5-(N-(1-methylcyclopropyl)sulfamoyl)pyrazolo[1,5-a]pyridin-7-yl)-N,N-dimethylpiperazine-1-carboxamide]	1.3 µM
> 20 µM	> 10 µM	0.739 µM	0.098 µM	CN(C)C(=O)N1CCN(c2cc(S(=O)(=O)NC3(C)CC3)cc3c(-c4nnc(C(F)F)o4)cnn23)CC1 [Example 11, 4-(3-(5-(difluoromethyl)-1,3,4-oxadiazol-2-yl)-5-(N-(1-methylcyclopropyl)sulfamoyl)pyrazolo[1,5-a]pyridin-7-yl)-N,N-dimethylpiperazine-1-carboxamide]	4.58 µM
> 20 µM	> 10 µM	1.49 µM	0.038 µM	Cc1nnc(-c2cnn3c(N4CCN(C(=O)N(C)C)CC4)cc(S(=O)(=O)NC4(C)CC4)cc23)s1 [Example 12, N,N-dimethyl-4-(3-(5-methyl-1,3,4-thiadiazol-2-yl)-5-(N-(1-methylcyclopropyl)sulfamoyl)pyrazolo[1,5-a]pyridin-7-yl)piperazine-1-carboxamide]	6.05 µM
